# Where two headings read alike, the source gives them in different places.
# Columns and labels:
# Assay type in all cases: cell-based
# Candida albicans Yu-1200 = assay: antimicrobial activity, MIC
# [1] = tested on: Helminthosporium sesamum IAM 5012; assay: antimicrobial activity, MIC
# [2] = tested on: Staphylococcus aureus FDA 209P; assay: antimicrobial activity, MIC
# [3] = tested on: Staphylococcus epidermidis ATCC 12228; assay: antimicrobial activity, MIC
# [4] = tested on: Candida albicans NHL 4019; assay: antimicrobial activity, MIC
# [5] = tested on: Trichophyton rubrum NHL J; assay: antimicrobial activity, MIC; details: Trichophyton rubrum NHL J
# [6] = tested on: Saccharomyces cerevisiae ATCC 9763; assay: antimicrobial activity, MIC
# [7] = tested on: Gibberella fujikuroi IAM 8046; assay: antimicrobial activity, MIC
# [8] = tested on: Debaryomyces kloeckeri IFO 0015; assay: antimicrobial activity, MIC
# [9] = tested on: Fusarium moniliforme IAM 5062; assay: antimicrobial activity, MIC
# [10] = tested on: Trichophyton mentagrophytes IFO 5812; assay: antimicrobial activity, MIC
# [11] = tested on: Epidermophyton floccosum IFO 9045; assay: antimicrobial activity, MIC
# [12] = tested on: Bacillus subtilis ATCC 6633; assay: antimicrobial activity, MIC
# [13] = tested on: Staphylococcus aureus Terajima; assay: antimicrobial activity, MIC
# [14] = tested on: Microsporum audounii IFO 6074; assay: antimicrobial activity, MIC
# [15] = tested on: Aspergillus niger ATCC 9642; assay: antimicrobial activity, MIC
# [16] = tested on: Streptococcus faecalis IFO 12964; assay: antimicrobial activity, MIC
# [17] = tested on: Penicillium chrysogenum ATCC 6010; assay: antimicrobial activity, MIC
# [18] = tested on: Aspergillus oryzae IMF 4014; assay: antimicrobial activity, MIC
# Saccharomyces ruxii 6507 = assay: antimicrobial activity, MIC; details: Saccharomyces ruxii 6507; read-out: MIC
# [19] = tested on: Microsporum cookei IFO 8303; assay: antimicrobial activity, MIC
# [20] = tested on: Pyricularia oryzae IAM 5016; assay: microbe, parasite or virus in culture
# [21] = tested on: Staphylococcus aureus Smith; assay: antimicrobial activity, MIC
# Sarcina lutea ATCC 9341 = assay: antimicrobial activity, MIC
# [22] = tested on: Trichophyton tonsurans IFO 5928; assay: antimicrobial activity, MIC
# [23] = tested on: Micrococcus lysodeixticus IFO 3333; assay: antimicrobial activity, MIC
# [24] = tested on: Microsporum gypseum IFO 8231; assay: antimicrobial activity, MIC
# [25] = tested on: Cladosporium fulvum IAM 5006; assay: antimicrobial activity, MIC
# [26] = tested on: Trichophyton mentagrophytes QM 248; assay: antimicrobial activity, MIC
# [27] = Helminthosporium, IAM5012, Helminthosporium sesamum IAM 5012, read-out: MIC
# [28] = Staphylococcus aureus, FDA209P, read-out: MIC
# [29] = Staphylococcus epidermidis, ATCC12228, Staphylococcus epidermidis ATCC 12228, read-out: MIC
# [30] = Candida albicans, NHL4019, Candida albicans NHL 4019, read-out: MIC
# [31] = Trichophyton rubrum, read-out: MIC
# [32] = Saccharomyces cerevisiae, ATCC9763, Saccharomyces cerevisiae ATCC 9763, read-out: MIC
# [33] = Fusarium fujikuroi, IAM8046, Gibberella fujikuroi IAM 8046, read-out: MIC
# [34] = Fusarium verticillioides, IAM5062, Fusarium moniliforme IAM 5062, read-out: MIC
# [35] = Trichophyton mentagrophytes, IFO5812, Trichophyton mentagrophytes IFO 5812, read-out: MIC
# [36] = Epidermophyton floccosum, IFO9045, Epidermophyton floccosum IFO 9045, read-out: MIC
# [37] = Bacillus subtilis, ATCC6633, Bacillus subtilis ATCC 6633, read-out: MIC
# [38] = Staphylococcus aureus, read-out: MIC
# [39] = Microsporum, IFO6074, Microsporum audounii IFO 6074, read-out: MIC
# [40] = Aspergillus niger, ATCC9642, Aspergillus niger ATCC 9642, read-out: MIC
# [41] = Enterococcus faecalis, IFO12964, Streptococcus faecalis IFO 12964, read-out: MIC
# [42] = Penicillium chrysogenum, ATCC6010, Penicillium chrysogenum ATCC 6010, read-out: MIC
# [43] = Aspergillus oryzae, IMF4014, Aspergillus oryzae IMF 4014, read-out: MIC
# [44] = Paraphyton cookei, IFO8303, Microsporum cookei IFO 8303, read-out: MIC
# [45] = Pyricularia oryzae, IAM5016, Pyricularia oryzae IAM 5016
# [46] = Micrococcus luteus, ATCC9341, Sarcina lutea ATCC 9341, read-out: MIC
# [47] = Trichophyton tonsurans, IFO5928, Trichophyton tonsurans IFO 5928, read-out: MIC
# [48] = Micrococcus, IFO3333, Micrococcus lysodeixticus IFO 3333, read-out: MIC
# [49] = Nannizzia gypsea, IFO8231, Microsporum gypseum IFO 8231, read-out: MIC
# [50] = Fulvia fulva, IAM5006, Cladosporium fulvum IAM 5006, read-out: MIC
# [51] = Trichophyton mentagrophytes, QM248, Trichophyton mentagrophytes QM 248, read-out: MIC
structure (smiles),measurement,setting,value
"CCCOc1ccccc1C(=CSCCC)n1ccnc1 (single isomer, unassigned) [Compound 39]",MIC,"Candida albicans Yu-1200; YU1200, read-out: MIC",50 µg/mL
same,MIC,[1]; [27],0.39 µg/mL
same,MIC,[2]; [28],25 µg/mL
same,MIC,[3]; [29],25 µg/mL
same,MIC,[4]; [30],25 µg/mL
same,MIC,[5]; [31],< 0.2 µg/mL
same,MIC,[6]; [32],0.39 µg/mL
same,MIC,[7]; [33],0.78 µg/mL
same,MIC,"[8]; IFO0015, read-out: MIC",6.25 µg/mL
same,MIC,[9]; [34],0.78 µg/mL
same,MIC,[10]; [35],0.39 µg/mL
same,MIC,[11]; [36],1.56 µg/mL
same,MIC,[12]; [37],12.5 µg/mL
same,MIC,[13]; [38],25 µg/mL
same,MIC,[14]; [39],< 0.2 µg/mL
same,MIC,[15]; [40],1.56 µg/mL
same,MIC,[16]; [41],25 µg/mL
same,MIC,[17]; [42],1.56 µg/mL
same,MIC,[18]; [43],0.78 µg/mL
same,MIC,Saccharomyces ruxii 6507,0.78 µg/mL
same,MIC,[19]; [44],1.56 µg/mL
same,MIC,[20]; [45],< 0.2 µg/mL
same,MIC,[21]; [38],25 µg/mL
same,MIC,Sarcina lutea ATCC 9341; [46],12.5 µg/mL
same,MIC,[22]; [47],0.39 µg/mL
same,MIC,[23]; [48],6.25 µg/mL
same,MIC,[24]; [49],0.39 µg/mL
same,MIC,[25]; [50],25 µg/mL
same,MIC,[26]; [51],0.39 µg/mL
"CCCOc1ccccc1C(=CSc1ccccc1)n1ccnc1 (single isomer, unassigned) [Compound 65]",MIC,Candida albicans Yu-1200,> 100 µg/mL
same,MIC,[1]; Helminthosporium sesamum IAM 5012,100 µg/mL
same,MIC,[2],12.5 µg/mL
same,MIC,[3]; Staphylococcus epidermidis ATCC 12228,6.25 µg/mL
same,MIC,[4]; Candida albicans NHL 4019,> 100 µg/mL
same,MIC,[5],3.12 µg/mL
same,MIC,[6]; Saccharomyces cerevisiae ATCC 9763,25 µg/mL
same,MIC,[7]; Gibberella fujikuroi IAM 8046,> 100 µg/mL
same,MIC,[8],> 100 µg/mL
same,MIC,[9]; Fusarium moniliforme IAM 5062,> 100 µg/mL
same,MIC,[10]; Trichophyton mentagrophytes IFO 5812,3.12 µg/mL
same,MIC,[11]; Epidermophyton floccosum IFO 9045,100 µg/mL
same,MIC,[12]; Bacillus subtilis ATCC 6633,3.12 µg/mL
same,MIC,[13],6.25 µg/mL
same,MIC,[14]; Microsporum audounii IFO 6074,6.25 µg/mL
same,MIC,[15]; Aspergillus niger ATCC 9642,> 100 µg/mL
same,MIC,[16]; Streptococcus faecalis IFO 12964,12.5 µg/mL
same,MIC,[17]; Penicillium chrysogenum ATCC 6010,> 100 µg/mL
same,MIC,[18]; Aspergillus oryzae IMF 4014,> 100 µg/mL
same,MIC,Saccharomyces ruxii 6507,6.25 µg/mL
same,MIC,[19]; Microsporum cookei IFO 8303,100 µg/mL
same,MIC,[20]; Pyricularia oryzae IAM 5016,1.56 µg/mL
same,MIC,[21],6.25 µg/mL
same,MIC,Sarcina lutea ATCC 9341; Sarcina lutea ATCC 9341,3.12 µg/mL
same,MIC,[22]; Trichophyton tonsurans IFO 5928,12.5 µg/mL
same,MIC,[23]; Micrococcus lysodeixticus IFO 3333,1.56 µg/mL
same,MIC,[24]; Microsporum gypseum IFO 8231,12.5 µg/mL
same,MIC,[25]; Cladosporium fulvum IAM 5006,> 100 µg/mL
same,MIC,[26]; Trichophyton mentagrophytes QM 248,12.5 µg/mL
"CCCCCSC=C(c1ccccc1OCC)n1ccnc1 (single isomer, unassigned) [Compound 49]",MIC,"Candida albicans Yu-1200; YU1200, read-out: MIC",25 µg/mL
same,MIC,[1]; [27],0.39 µg/mL
same,MIC,[2]; [28],12.5 µg/mL
same,MIC,[3]; [29],3.12 µg/mL
same,MIC,[4]; [30],25 µg/mL
same,MIC,[5]; [31],< 0.2 µg/mL
same,MIC,[6]; [32],50 µg/mL
same,MIC,[7]; [33],0.39 µg/mL
same,MIC,"[8]; IFO0015, read-out: MIC",12.5 µg/mL
same,MIC,[9]; [34],1.56 µg/mL
same,MIC,[10]; [35],< 0.2 µg/mL
same,MIC,[11]; [36],0.78 µg/mL
same,MIC,[12]; [37],3.12 µg/mL
same,MIC,[13]; [38],6.25 µg/mL
same,MIC,[14]; [39],< 0.2 µg/mL
same,MIC,[15]; [40],< 0.2 µg/mL
same,MIC,[16]; [41],6.25 µg/mL
same,MIC,[17]; [42],6.25 µg/mL
same,MIC,[18]; [43],0.78 µg/mL
same,MIC,Saccharomyces ruxii 6507,< 0.2 µg/mL
same,MIC,[19]; [44],1.56 µg/mL
same,MIC,[20]; [45],< 0.2 µg/mL
same,MIC,[21]; [38],12.5 µg/mL
same,MIC,Sarcina lutea ATCC 9341; [46],3.12 µg/mL
same,MIC,[22]; [47],< 0.2 µg/mL
same,MIC,[23]; [48],1.56 µg/mL
same,MIC,[24]; [49],< 0.2 µg/mL
same,MIC,[25]; [50],25 µg/mL
same,MIC,[26]; [51],< 0.2 µg/mL

# Reference: patent US4740601A, “Imidazole derivatives having antimicrobial activities” (SS Pharmaceutical Co., Ltd., priority 1985, dated 1988)
